Where “and” joins values, the source holds several entries; their conditions need not be identical. Equal values may be shown once. Where a name gives a salt, the structure may show the parent alone. Read-outs that look alike come from different tables or passages of the source.
Legend:
L-6 rat mycoblast cells = assay: Cell toxicity assay in L-6 rat mycoblast cells; type: cell-based; settings: assay for cell toxicity, read-out: L6 Rat Mycoblast Cells IC50
Procedure: (§1) In vitro antiprotozoal activities were measured following established protocols. […] E., et al., Bioorg.

[1] = system: Trypanosoma brucei rhodesiense; assay: In vitro antiprotozoal activity against T. b. r.; type: cell-based
Procedure: as §1

Plasmodium falciparum = assay: In vitro antiprotozoal activity against P. f.; type: cell-based
Procedure: as §1

Leishmania donovani = assay: In vitro antiprotozoal activity against L. d.; type: cell-based; settings: read-out: L.d. C50
Procedure: as §1

[2] = system: STIB 900 strain of Trypanosoma brucei rhodesiense; assay: In vivo activity against T. b. r. STIB 900 in a mouse model; settings: for Survival: average days of survival, mice, untreated controls die between day 7 and 8; for Survival / Cures: days 3-6 post-infection; for Cures: number of mice that survive and are parasite free for 60 days, groups of four mice; for in vivo activity against T. b. r. (in words) / cure rate compared with pentamidine and furamidine (in words): murine model; for cure rate compared with pentamidine and furamidine (in words): T. b. r. STIB 900
Procedure: The activities of compounds 6, 8, 14, 16 and 17, against the STIB 900 strain of Trypanosoma brucei rhodesiense (T. b. r.) in a mouse model are shown in Table 2. These values are compared to those of pentamidine and furamidine. Groups of four mice were infected intraperitoneally with […] bloodstream forms of T. b. r. STIB 900 which originates from a patient in Tanzania. On days 3, 4, 5, and 6 post-infection the experimental groups were treated with the drugs either by the intraperitoneal or for prodrugs by the oral route. Usually the highest tolerated dose was used which was determined in a pretoxicological experiment. Parasitemia of the mice was checked daily up to day 14 post-infection and thereafter 2 times per week up to day 60. One group of mice was not treated and acted as control. For relapsing mice, the day of death was recorded and the survival time determined.

[3] = system: Trypanosoma brucei rhodesiense, Plasmodium falciparum, Leishmania donovani; assay: In vitro antiprotozoal activities, overall statement on prodrugs; type: cell-based; settings: absence of the enzymes needed for bioconversion to the active diamidines
Procedure: In vitro antiprotozoal activities were measured following established protocols. See Ismail, M. A., et al., J. Med. Chem., 46, 4761-4769 (2003); Stephens, C. E., et al., Bioorg. Med. Chem. Lett., 13, 2065-2069 (2003) (in vitro assay against Leishmania donovani). The activities of compounds 8, 14, 16, 17, 19, 22, 26a, 26b, 29a, 29b, and 33, 39, and 45 against Trypanosoma brucei riodesiense (T. b. r.), Plasmodium falciparum (P. f.), Leishmania donovani (L. d.), and L-6 rat mycoblast cells (as an assay for cell toxicity) are shown in Table 1. These values are compared to those of pentamidine and furamidine.

polyA.polyT = assay: DNA binding study: increase in thermal melting (ΔTm) of polyA.polyT; settings: increase in thermal melting of polyA.polyT in the presence of compound
Procedure: DNA binding studies with polyA.polyT were carried out using established protocols. See Wilson, W. D., et al., Biochemistry, 32, 4098-4104 (1993).

[4] = Trypanosoma brucei, RHODESIENSE

melting point [°C] | SMILES | IC50 (L-6 rat mycoblast cells) [µM] | IC50 [1, 4] [µM] | IC50 (Plasmodium falciparum; Plasmodium falciparum) [µM] | IC50 (Leishmania donovani) [µM] | other results
> 300 | N=C(N)c1ccnc(-c2ccc(-c3ccc(-c4cc(C(=N)N)ccn4)s3)s2)c1 [Compound 26b, 5,5′-Bis-(4-amidino-2-pyridyl)-2,2′-bithiophene] | > 159 | 0.036 | 0.034 | > 50 | 
> 300 | N=C(N)c1ccc(-c2ccc(-c3ccc(-c4ccc(C(=N)N)cn4)o3)o2)nc1 (as salt: salt) [Compound 22, 5,5′-Bis-(5-amidino-2-pyridyl)-2,2′-bifuran] |  |  |  |  | 
 | N/C(=N\O)c1ccc(-c2ccc(-c3ccc(-c4ccc(/C(N)=N\O)cc4)o3)o2)cc1 [Compound 16, 5,5′-bis-(4-N-Hydroxybenzamidine)-2,2′-bifuran] | > 182 | 8.7 | 2.96 |  | Survival ([2]; po, 100 mg/kg): 5.5 days; Cures ([2]; po, 100 mg/kg): 0/4; in vitro activity (in words) [3]: poor in vitro activity
248 to 250 | N=C(NO)c1ccc(-c2ccc(-c3ccc(C(=N)NO)o3)o2)nc1 [Compound 13, N-Hydroxy-6-[5′-(N-hydroxyamidino)-2,2′-bifuran-5-yl]-nicotinamidine] |  |  |  |  | 
 | N=C(N)c1ccc(OCCCCCOc2ccc(C(=N)N)cc2)cc1 [Pentamidine, reference compound] |  |  |  | 2 | Survival ([2]; ip, 20 mg/kg): >42.75 days; Cures ([2]; ip, 20 mg/kg): 0/4
 | N=C(NO)c1ccc(-c2ccc(-c3ccc(C(=N)NO)o3)o2)cc1 [Compound 6, N-Hydroxy-5′-[4-(N-hydroxyamidino)-phenyl]-2,2′-bifuran-5-carboxamidine] |  |  |  |  | Survival ([2]; po, 75 mg/kg): 20 days; Cures ([2]; po, 75 mg/kg): 0/4; in vitro activity (in words) [3]: poor in vitro activity
 | CC(=O)O.N=C(N)c1ccc(-c2ccc(-c3ccc(C(=N)N)o3)o2)nc1 [Compound 14, 6-(5′-Amidino-2,2′-bifuran-5-yl)-nicotinamidine acetate salt] | 26.9 |  |  |  | Survival ([2]; ip, 10 mg/kg): >51.25 days; in vivo activity against T. b. r. (in words) [2]: good in vivo activity; cure rate compared with pentamidine and furamidine (in words) [2]: better cure rates than pentamidine and furamidine; Cures ([2]; ip, 10 mg/kg, acetate salt, 10 mg/kg): three mice out of four and 3/4; Δ Tm (polyA.polyT): 7.1 °C
 | N=C(N)c1ccc(-c2ccc(-c3ccc(-c4ccc(C(=N)N)cn4)o3)o2)nc1 [Compound 22, 5,5′-Bis-(5-amidino-2-pyridyl)-2,2′-bifuran] | 5.1 | 0.07 | 0.029 | > 100 | 
 | Cl.N=C(N)c1ccc(-c2ccc(-c3ccc(-c4ccc(C(=N)N)cc4)o3)o2)cc1 [Compound 17, 5,5′-bis-(4-Amidinophenyl)-2,2′-bifuran hydrochloride salt] | 10.7 | 0.126 | ≤ 0.022 | 1 | Survival ([2]; ip, 10 mg/kg): 24 days; Cures ([2]; ip, 10 mg/kg): 0/4; IC50 (Plasmodium falciparum; hydrochloride salt): 0.02 µM; Δ Tm (polyA.polyT): 23.6 °C
 | N=C(N)c1ccc(-c2ccc(-c3ccc(C(=N)N)o3)o2)cc1 [Compound 8, 5′-(4-Amidinophenyl)-2,2′-bifuran-5-carboxamidine] | 37.8 |  | 0.0415 |  | Survival ([2]; ip, 20 mg/kg): >45.5 days; in vivo activity against T. b. r. (in words) [2]: good in vivo activity; cure rate compared with pentamidine and furamidine (in words) [2]: better cure rates than pentamidine and furamidine; Cures ([2]; ip, 20 mg/kg): 2/4; Δ Tm (polyA.polyT): 10.8 °C
 | N=C(N)c1ccc2nc(-c3ccc(-c4ccc(C(=N)N)o4)o3)[nH]c2c1 [Compound 45] | 41.8 |  |  |  | Δ Tm (polyA.polyT): 23.2 °C
 | CONC(=N)c1ccc(-c2ccc(-c3ccc(-c4ccc(C(=N)NOC)cc4)o3)o2)cc1 [Compound 19, 5,5′-Bis-[4-(N-methoxyamidino)phenyl]-2,2′-bifuran] | > 133 | 36 | > 7.4 |  | in vitro activity (in words) [3]: poor in vitro activity
> 300 | N=C(N)c1ccc(-c2ccc(-c3ccc(-c4ccc(C(=N)N)cc4)s3)s2)cc1 [Compound 26a, 5,5′-Bis-(4-amidinophenyl)-2,2′-bithiophene] | 89.4 | ≤ 0.026 | ≤ 0.022 |  | IC50 [1]: 0.015 µM; IC50 (Plasmodium falciparum): 0.022 µM

SMILES | melting point [°C] | IC50 (L-6 rat mycoblast cells) [µM] | IC50 [1, 4] [µM] | IC50 (Plasmodium falciparum; Plasmodium falciparum) [µM] | IC50 (Leishmania donovani) [µM] | other results
N=C(N)c1ccnc(-c2ccc(-c3ccc(-c4cc(C(=N)N)ccn4)[se]3)[se]2)c1 [Compound 29b, 5,5′-Bis-(4-amidino-2-pyridyl)-2,2′-biselenophene] | > 300 | > 144 | 0.153 | 0.076 | 19.8 | 
N=C(N)c1ccc(-c2ccc(-c3ccc(-c4ccc(C(=N)N)cc4)[se]3)[se]2)cc1 [Compound 29a, 5,5′-Bis-(4-amidinophenyl)-2,2′-biselenophene] | > 300 | 13.4 | ≤ 0.026 | ≤ 0.022 |  | IC50 [1]: 0.026 µM; IC50 (Plasmodium falciparum): 0.014 µM
